# Measurements published in ChEMBL document CHEMBL5244230, “Artemisinin-derived hybrids and their anticancer activity” (Eur J Med Chem, 2020).
# Several values for one entry are separate records, joined by “and”; a condition that tells them apart may be missing. Equal entries are not always repeated.
# Columns and labels:
# MCF7 [1] = experiment: Anticancer activity against human MCF7 cells; assay type: functional, cell-based
# [2] = target: c-Jun N-terminal kinase, JNK (Homo sapiens, UniProt P45983+P53779+P45984); experiment: Inhibition of N-terminal c-Jun phosphorylation in human HeLa cells; assay type: cell-based
# A549 = experiment: Antiproliferative activity against human A549 cells; assay type: functional, cell-based
# K562 = experiment: Antiproliferative activity against human K562 cells; assay type: functional, cell-based
# PC-3 = experiment: Antiproliferative activity against human PC-3 cells; assay type: functional, cell-based
# A-431 = experiment: Antiproliferative activity against human A-431 cells; assay type: functional, cell-based
# MDA-MB-231 = experiment: Antiproliferative activity against human MDA-MB-231 cells; assay type: functional, cell-based; details: Homo sapiens, MDA-MB-231
# COLO 205 = experiment: Antiproliferative activity against human COLO 205 cells; assay type: functional, cell-based
# HEK293 = experiment: Antiproliferative activity against human HEK293 cells; assay type: functional, cell-based
# [3] = Cytotoxicity against human HEK293 cells; assay type: toxicity, cell-based
# TRAMP-C1A [4] = experiment: Antiproliferative activity against mouse TRAMP-C1A cells; assay type: functional, cell-based
# C2D cell line = experiment: Antiproliferative activity against mouse C2D cell line; assay type: functional, cell-based
# C2G cell line = experiment: Antiproliferative activity against mouse C2G cell line; assay type: functional, cell-based
# TRAMP-C2H [5] = experiment: Antiproliferative activity against mouse TRAMP-C2H cells; assay type: functional, cell-based
# MCF7 [6] = experiment: Anticancer activity against human MCF7 cells assessed as inhibition of cell growth; assay type: functional, cell-based
# [7] = Anticancer activity against human Lu1 cells; assay type: functional, cell-based
# HL-60 [8] = experiment: Anticancer activity against human HL-60 cells; assay type: functional, cell-based
# P388 [9] = experiment: Anticancer activity against mouse P388 cells; assay type: functional, cell-based
# MCF7 [10] = experiment: Potency index, ratio of dihydroartemisinin IC50 to test compound IC50 for anticancer activity against human MCF7 cells; assay type: functional
# [11] = Potency index, ratio of dihydroartemisinin IC50 to test compound IC50 for anticancer activity against human Lu1 cells; assay type: functional
# HL-60 [12] = experiment: Potency index, ratio of dihydroartemisinin IC50 to test compound IC50 for anticancer activity against human HL-60 cells; assay type: functional
# [13] = Potency index, ratio of dihydroartemisinin IC50 to test compound IC50 for anticancer activity against mouse […] cells; assay type: functional
# MCF7 [14] = experiment: Antiproliferative activity against doxorubicin resistant human MCF7 cells; assay type: functional, cell-based
# [15] = Antiproliferative activity against mouse P388 cells assessed as reduction in cell viability measured after 72 hrs; assay type: functional, cell-based; details: 72 h
# HL-60 [16] = experiment: Antiproliferative activity against human HL-60 cells assessed as reduction in cell viability measured after 72 hrs; assay type: functional, cell-based; details: HL-60, 72 h
# P388/ADR [17] = experiment: Antiproliferative activity against mouse P388/ADR cells assessed as reduction in cell viability measured after 72 hrs; assay type: functional, cell-based; details: 72 h
# P388 [18] = experiment: Potency index, ratio of test compound IC50 to dihydroartemisinin IC50 for antiproliferative activity against mouse P388 cells assessed as reduction in cell viability measured after 72 hrs; assay type: functional
# HL-60 [19] = experiment: Potency index, ratio of test compound IC50 to dihydroartemisinin IC50 for antiproliferative activity against human HL-60 cells assessed as reduction in cell viability measured after 72 hrs; assay type: functional
# P388/ADR [20] = experiment: Potency index, ratio of test compound IC50 to dihydroartemisinin IC50 for antiproliferative activity against mouse P388/ADR cells assessed as reduction in cell viability measured after 72 hrs; assay type: functional
# HCT-116 [21] = experiment: Antiproliferative activity against human HCT-116 cells assessed as reduction in cell viability; assay type: functional, cell-based; details: hct-116
# HeLa [22] = experiment: Antiproliferative activity against human HeLa cells assessed as reduction in cell viability; assay type: functional, cell-based
# Leukemia cell [23] = experiment: Antiproliferative activity against human Leukemia cell assessed as reduction in cell viability; assay type: functional, cell-based
# HeLa [24] = experiment: Potency index, ratio of artesunate IC50 to test compound IC50 for antiproliferative activity against human HeLA cells assessed as inhibition of cell growth; assay type: functional
# HCT-116 [25] = experiment: Potency index, ratio of artesunate IC50 to test compound IC50 for antiproliferative activity against human HCT-116 cells assessed as inhibition of cell growth; assay type: functional
# Leukemia cell [26] = experiment: Potency index, ratio of artesunate IC50 to test compound IC50 for antiproliferative activity against human Leukemia cell assessed as inhibition of cell growth; assay type: functional
# TRAMP-C1A [27] = experiment: Cytotoxicity against mouse TRAMP-C1A cells assessed as inhibition of cell growth measured for 72 hrs by MTT assay; assay type: functional
# TRAMP-C2H [28] = experiment: Cytotoxicity against mouse TRAMP-C2H cells assessed as inhibition of cell growth measured for 72 hrs by MTT assay; assay type: functional
# LNCaP = experiment: Cytotoxicity against human LNCaP cells assessed as inhibition of cell growth measured for 72 hrs by MTT assay; assay type: functional
structure (smiles),measurement,setting,value
Cc1cc(N/N=C/c2ccc(O[C@H]3O[C@@H]4O[C@@]5(C)CC[C@H]6[C@H](C)CC[C@@H]([C@H]3C)[C@@]46OO5)cc2)c2cc(Cl)ccc2n1,IC50,MCF7 [1],15000 nM
same,IC50,[2],7500 nM
C[C@H]1[C@@H](OCc2cn(-c3ccc(O)cc3)nn2)O[C@@H]2O[C@@]3(C)CC[C@H]4[C@H](C)CC[C@@H]1[C@@]24OO3,IC50,A549,4060 nM
same,IC50,K562,4060 nM
same,IC50,PC-3,4060 nM
same,IC50,A-431,4060 nM
same,IC50,MDA-MB-231,4060 nM
same,IC50,COLO 205,4060 nM
same,IC50,HEK293,4060 nM
same,IC50,[3],> 100 µg/mL
C[C@H]1[C@@H](OC(COC(=O)c2cc[n+]([O-])cc2)C[C@H]2O[C@@H]3O[C@@]4(C)CC[C@H]5[C@H](C)CC[C@@H]([C@H]2C)[C@@]35OO4)O[C@@H]2O[C@@]3(C)CC[C@H]4[C@H](C)CC[C@@H]1[C@@]24OO3 (some centres undefined),IC50,TRAMP-C1A [4],36.1 nM
same,IC50,C2D cell line,36.1 nM
same,IC50,C2G cell line,36.1 nM
same,IC50,TRAMP-C2H [5],36.1 nM
CC1CCNC(C(=O)c2ccc(-n3cc(CO[C@H]4O[C@@H]5O[C@@]6(C)CC[C@H]7[C@H](C)CC[C@@H]([C@H]4C)[C@@]57OO6)nn3)cc2)C1 (some centres undefined),IC50,MCF7 [1],2500 nM
same,IC50,MCF7 [6],2500 nM
same,IC50,[7],2500 nM
same,IC50,HL-60 [8],2500 nM
same,IC50,P388 [9],2500 nM
same,Ratio IC50,MCF7 [10],10.5
same,Ratio IC50,[11],10.5
same,Ratio IC50,HL-60 [12],10.5
same,Ratio IC50,[13],10.5
C[C@H]1[C@@H](Oc2ccc(Cn3ccnn3)cc2)O[C@@H]2O[C@@]3(C)CC[C@H]4[C@H](C)CC[C@@H]1[C@@]24OO3,IC50,MCF7 [14],47 nM
same,IC50,[15],47 nM
same,IC50,HL-60 [16],65 nM
same,IC50,P388/ADR [17],2890 nM
same,Ratio IC50,P388 [18],4.6
same,Ratio IC50,HL-60 [19],4.6
same,Ratio IC50,P388/ADR [20],4.6
C[C@H]1[C@@H](CC(COP(=O)(Oc2ccccc2)Oc2ccccc2)C[C@H]2O[C@@H]3O[C@]4(C)CC[C@H]5[C@H](C)CC[C@@H]([C@H]2C)[C@@]35OO4)O[C@@H]2O[C@@]3(C)CC[C@H]4[C@H](C)CC[C@@H]1[C@@]24OO3 (some centres undefined),IC50,HCT-116 [21],40 nM and 190 nM
same,IC50,HeLa [22],40 nM
same,IC50,Leukemia cell [23],100 nM
same,Ratio IC50,HeLa [24],68.8
same,Ratio IC50,HCT-116 [25],68.8
same,Ratio IC50,Leukemia cell [26],68.8
same,GI50,TRAMP-C1A [27],31.9 nM
same,GI50,TRAMP-C2H [28],44.8 nM
same,GI50,LNCaP,34.4 nM
